According to patent publication US9949995B2, “Compositions and methods of treating of bacterial infections with β-lactamase inhibitors” (priority 2015, dated 2018):

Assays:
[1] = molecular target: IMP-1 (Serratia marcescens, UniProt P52699); assay: IC50 assay, nitrocefin hydrolysis, IMP-1 (MBL); type: biochemical; conditions: nitrocefin 50 μM, 5 min pre-incubation at 25° C.; 10 mM HEPES pH 7.5, 200 mM NaCl, 50 uM Zn2SO4, 50 ug/ml BSA
Description: (§1) IC50 assays were performed to determine compound ability to inhibit enzyme.

[2] = molecular target: NDM-1 (Klebsiella pneumoniae, UniProt C7C422); assay: IC50 assay, nitrocefin hydrolysis, NDM-1 (MBL); type: biochemical; conditions: nitrocefin 50 μM, 5 min pre-incubation at 25° C.; 10 mM HEPES pH 7.5, 200 mM NaCl, 50 uM Zn2SO4, 50 ug/ml BSA
Chain of NDM-1 (C7C422 29-270, looked up): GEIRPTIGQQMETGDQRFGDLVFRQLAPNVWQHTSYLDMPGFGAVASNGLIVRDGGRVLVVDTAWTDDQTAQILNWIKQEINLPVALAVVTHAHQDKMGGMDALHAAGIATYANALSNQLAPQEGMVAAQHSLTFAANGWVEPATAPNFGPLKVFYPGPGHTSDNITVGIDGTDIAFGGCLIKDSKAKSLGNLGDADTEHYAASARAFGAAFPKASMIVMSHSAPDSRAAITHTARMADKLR
Description: as §1

[3] = molecular target: VIM-2 (Escherichia coli, UniProt Q5U7L7); assay: IC50 assay, nitrocefin hydrolysis, VIM-2 (MBL); type: biochemical; conditions: nitrocefin 50 μM, 5 min pre-incubation at 25° C.; 10 mM HEPES pH 7.5, 200 mM NaCl, 50 uM Zn2SO4, 50 ug/ml BSA
Description: as §1

[4] = molecular target: VIM-24 (Escherichia coli, UniProt Q5U7L7, R205L); assay: IC50 assay, nitrocefin hydrolysis, VIM-24 (MBL); type: biochemical
Description: as §1

[5] = molecular target: KPC-2 (Klebsiella pneumoniae, UniProt Q9F663); assay: IC50 assay, nitrocefin hydrolysis, KPC-2 (SBL); type: biochemical; conditions: nitrocefin 50 μM, 5 min pre-incubation at 25° C.; 10 mM phosphate-buffered saline, pH 7.4
Chain of KPC-2 (Q9F663 25-293, looked up): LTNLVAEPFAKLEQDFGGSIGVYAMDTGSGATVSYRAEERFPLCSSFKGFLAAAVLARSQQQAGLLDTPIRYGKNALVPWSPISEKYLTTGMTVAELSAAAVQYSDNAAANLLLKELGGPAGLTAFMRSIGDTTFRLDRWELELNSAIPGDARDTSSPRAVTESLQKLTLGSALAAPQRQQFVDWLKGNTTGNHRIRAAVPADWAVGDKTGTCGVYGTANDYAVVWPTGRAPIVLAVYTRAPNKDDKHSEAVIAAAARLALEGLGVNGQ
Description: as §1

[6] = molecular target: ADC-7 (Acinetobacter baumannii, UniProt Q6DRA1); assay: IC50 assay, nitrocefin hydrolysis, ADC-7 (SBL); type: biochemical; conditions: nitrocefin 50 μM, 5 min pre-incubation at 25° C.; 10 mM phosphate-buffered saline, pH 7.4
Description: as §1

[7] = molecular target: PDC-3 (Pseudomonas aeruginosa, UniProt P24735, T105A); assay: IC50 assay, nitrocefin hydrolysis, PDC-3 (SBL); type: biochemical
Chain of PDC-3 (P24735 27-397 T105A): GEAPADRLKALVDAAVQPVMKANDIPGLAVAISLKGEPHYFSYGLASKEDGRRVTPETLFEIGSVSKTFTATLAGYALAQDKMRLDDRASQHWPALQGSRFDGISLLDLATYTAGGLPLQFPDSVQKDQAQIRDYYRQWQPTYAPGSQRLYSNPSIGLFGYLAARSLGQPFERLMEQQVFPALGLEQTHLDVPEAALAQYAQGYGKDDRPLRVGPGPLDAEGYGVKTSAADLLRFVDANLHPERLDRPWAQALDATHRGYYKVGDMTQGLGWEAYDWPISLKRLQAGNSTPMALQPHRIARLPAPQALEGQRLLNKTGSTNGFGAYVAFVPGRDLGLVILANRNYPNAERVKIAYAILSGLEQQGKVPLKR
Description: as §1

[8] = molecular target: OXA-23 (Acinetobacter baumannii, UniProt Q9L4P2); assay: IC50 assay, nitrocefin hydrolysis, OXA-23 (SBL); type: biochemical; conditions: nitrocefin 50 μM, 5 min pre-incubation at 25° C.; 50 mM Na Phosphate buffer, pH 7.2, 20 mM Na bicarbonate
Chain of OXA-23 (Q9L4P2 18-273): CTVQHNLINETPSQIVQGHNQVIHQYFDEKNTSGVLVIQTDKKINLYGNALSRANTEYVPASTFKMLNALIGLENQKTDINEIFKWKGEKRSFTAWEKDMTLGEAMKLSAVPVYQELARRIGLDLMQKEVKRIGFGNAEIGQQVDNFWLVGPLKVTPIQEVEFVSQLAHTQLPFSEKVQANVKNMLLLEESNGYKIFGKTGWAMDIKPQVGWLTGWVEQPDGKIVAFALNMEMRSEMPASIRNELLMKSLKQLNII
Description: as §1

Chain of IMP-1 (P52699 19-246, looked up): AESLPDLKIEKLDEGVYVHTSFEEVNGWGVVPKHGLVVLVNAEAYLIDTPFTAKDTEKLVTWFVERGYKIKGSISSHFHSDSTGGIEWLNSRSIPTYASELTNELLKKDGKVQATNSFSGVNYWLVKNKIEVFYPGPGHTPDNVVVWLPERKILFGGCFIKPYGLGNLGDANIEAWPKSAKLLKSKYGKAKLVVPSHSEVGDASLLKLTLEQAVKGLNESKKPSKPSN

Structure (SMILES): O=C(O)c1cn([C@@H](Cc2ccccc2)B(O)O)nn1
- melting point: 120 to 122 °C (dec.)

Structure (SMILES): OB(O)[C@H](Cc1ccccc1)n1cc(-c2ccccc2)nn1
- melting point: 151 to 153 °C (dec.)

Structure (SMILES): OB(O)[C@H](Cc1ccccc1)n1cc(-c2ccsc2)nn1
- melting point: 141 to 143 °C (dec.)

Structure (SMILES): OB(O)[C@H](Cc1ccccc1)n1cc(COc2ccccc2)nn1
- melting point: 113 to 115 °C (dec.)

Structure (SMILES): CCOC(=O)c1cn([C@@H](Cc2cccc(C(=O)O)c2)B(O)O)nn1
- melting point: 108 to 110 °C (dec.)

Structure (SMILES): O=C(O)c1cccc(C[C@@H](B(O)O)n2cc(-c3ccccc3)nn2)c1
- melting point: 88 to 90 °C (dec.)

Structure (SMILES): O=C(O)c1cccc(C[C@@H](B(O)O)n2cc(-c3ccsc3)nn2)c1
- melting point: 185 to 187 °C (dec.)

Structure (SMILES): CCOC(=O)c1cn(CB(O)O)nn1
- melting point: 123 to 125 °C (dec.)

Structure (SMILES): OB(O)Cn1cc(-c2ccccc2)nn1
- melting point: 122 to 124 °C (dec.)

Structure (SMILES): OB(O)Cn1cc(-c2ccsc2)nn1
- melting point: 170 to 172 °C (dec.)

Structure (SMILES): OB(O)Cn1cc(COc2ccccc2)nn1
- melting point: 128 to 131 °C (dec.)

Structure (SMILES): Cc1ccc(S(=O)(=O)NCc2cn(CB(O)O)nn2)cc1 [Cmp 1a]
- IC50 [1]: > 100 µM
- IC50 [2]: > 100 µM
- IC50 [3]: > 100 µM
- IC50 [4]: > 100 µM
- IC50 [5]: 1.3 ± 0.1 µM
- IC50 [6]: 24 ± 3 µM
- IC50 [7]: 9 ± 1 µM
- IC50 [8]: > 100 µM

Structure (SMILES): O=C(NCc1cn(CB(O)O)nn1)c1ccccc1 [Cmp 1c]
- IC50 [1]: > 100 µM
- IC50 [2]: > 100 µM
- IC50 [3]: 55 ± 5 µM
- IC50 [4]: > 100 µM
- IC50 [5]: 10.8 ± 1.5 µM
- IC50 [6]: 23 ± 3 µM
- IC50 [7]: 26 ± 3 µM
- IC50 [8]: > 100 µM

Structure (SMILES): O=C(Cc1ccccc1)NCc1cn(CB(O)O)nn1 [Cmp 1d]
- IC50 [1]: > 100 µM
- IC50 [2]: > 100 µM
- IC50 [3]: 92 ± 9 µM
- IC50 [4]: > 100 µM
- IC50 [5]: 12 ± 1 µM
- IC50 [6]: 39 ± 4 µM
- IC50 [7]: 23 ± 3 µM
- IC50 [8]: > 100 µM

Structure (SMILES): O=C(NCc1cn(CB(O)O)nn1)Nc1ccccc1 [Cmp 1e]
- IC50 [1]: > 100 µM
- IC50 [2]: > 100 µM
- IC50 [3]: 39 ± 4 µM
- IC50 [4]: > 100 µM
- IC50 [5]: 5.2 ± 0.2 µM
- IC50 [6]: 14 ± 2 µM
- IC50 [7]: 10 ± 1 µM
- IC50 [8]: > 100 µM
